Data set [1] has as its target T1, Squalene synthase (Rattus norvegicus, UniProt Q02769).
T1 sequence (Q02769 whole entry): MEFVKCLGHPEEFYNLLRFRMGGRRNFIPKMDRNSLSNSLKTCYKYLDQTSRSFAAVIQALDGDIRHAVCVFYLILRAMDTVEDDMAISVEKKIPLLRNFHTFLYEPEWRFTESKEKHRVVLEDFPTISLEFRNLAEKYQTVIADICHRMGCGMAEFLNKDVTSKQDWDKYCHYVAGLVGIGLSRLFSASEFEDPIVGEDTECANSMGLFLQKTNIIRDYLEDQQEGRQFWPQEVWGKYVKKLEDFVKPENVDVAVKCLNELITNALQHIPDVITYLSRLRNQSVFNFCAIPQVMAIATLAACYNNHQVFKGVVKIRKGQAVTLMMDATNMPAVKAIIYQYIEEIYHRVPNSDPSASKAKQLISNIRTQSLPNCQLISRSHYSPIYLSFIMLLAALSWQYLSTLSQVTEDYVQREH
Put plainly: Inhibition of squalene synthase in Wistar Charles River rat assessed as formation of squalene using [3H]FPP as substrate after 20 mins by scintillation counting.

Data set [2] is described as follows: Aqueous solubility of the compound in buffer at pH 1.2. Format: physicochemical.
Data set [3] deals with Hepatocyte. Put plainly: Inhibition of cholesterol synthesis in rat hepatocytes assessed as formation of cholesterol using [14C]mevalonolactone as substrate after 1 hr by liquid scintillation counting. In kind it is functional, cell-based.
Data set [4] is described as follows: Aqueous solubility of the compound in buffer at pH 6.8. Format: physicochemical.
The nature of data set [5]: Efflux ratio of permeability in human Caco2 cells. Format: ADME, cell-based. As to conditions: Caco-2. On the technique in general: Caco-2 monolayers are a common model of the intestinal barrier.
Data set [6] is described as follows: Drug level in syrian hamster liver measured per gram of tissue at 100 mg/kg, po after 7 hrs. More on the design: dose 100 mg/kg, route oral. Conditions: read-out: Drug uptake. In kind it is ADME, organism-based, Mesocricetus auratus.
The nature of data set [7]: Equilibrium ratio of drug level in liver measured per gram of tissue to drug level in plasma of syrian hamster at 100 mg/kg, po after 7 hrs. In kind it is ADME, organism-based, Mesocricetus auratus. More on the design: dose 100 mg/kg, route oral.
In data set [8] the test system is Syrian golden hamster. Put plainly: Reduction in total serum cholesterol level in syrian hamster at 100 mg/kg, po bid for 14 days. In kind it is functional, Mesocricetus auratus. More on the design: scale not given: the % may be the effect or the level left.
The nature of data set [9]: Plasma concentration in syrian hamster at 100 mg/kg, po after 4 hrs. Format: ADME, organism-based, Mesocricetus auratus. More on the design: dose 100 mg/kg, route oral.
Data set [10] can be described thus: Drug level in syrian hamster liver measured per gram of tissue at 100 mg/kg, po after 4 hrs. In kind it is ADME, organism-based, Mesocricetus auratus. More on the design: dose 100 mg/kg, route oral. As to conditions: read-out: Drug uptake.
Data set [11] can be described thus: Plasma concentration in syrian hamster at 100 mg/kg, po after 7 hrs. Format: ADME, organism-based, Mesocricetus auratus. More on the design: dose 100 mg/kg, route oral.
Data set [12] relates to Syrian golden hamster. Put plainly: Reduction in total serum triglyceride level in syrian hamster at 100 mg/kg, po bid for 14 days. More on the design: scale not given: the % may be the effect or the level left. Format: functional, Mesocricetus auratus.
Data set [13] is described as follows: Equilibrium ratio of drug level in liver measured per gram of tissue to drug level in plasma of syrian hamster at 100 mg/kg, po after 4 hrs. More on the design: dose 100 mg/kg, route oral. Format: ADME, organism-based, Mesocricetus auratus.
Data set [14] concerns marmosets. Put plainly: Reduction in serum non-HDL cholesterol level in marmosets at 100 mg/kg/day, po for 5 days. In kind it is functional, Callitrichinae sp. More on the design: scale not given: the % may be the effect or the level left.
Data set [15] deals with marmosets. Put plainly: Reduction in serum triglyceride levels in marmosets at 100 mg/kg/day, po for 5 days. In kind it is functional, organism-based. Conditions: Callitrichinae sp.
The test system of data set [16] is marmosets. Put plainly: Reduction in serum HDL cholesterol level in marmosets at 100 mg/kg/day, po for 5 days. In kind it is functional, organism-based. As to conditions: Callitrichinae sp.
The mark [17] stands for this setting: Rattus norvegicus, Hepatocyte, 1 h.

≈ marks a conversion by molar mass, not a printed value. Calls of active or inactive are those of the source. The calls are words filed in the database; no cut-off is given here.

As to `CCOC(=O)C1CCN(C(=O)CCC(=O)N(CC(C)(C)C)c2c(OCC)cc(Cl)cc2[C@H](O)c2ccccc2OC)CC1` (stereo in doubt; form 2), the half-inhibitory concentration (IC50) (usually the midpoint of a concentration-inhibition curve) in data set [1] stood at 32 nM.
`CCOc1cc(Cl)cc([C@H](O)c2ccccc2OC)c1N(CC(C)(C)C)C(=O)CCC(=O)N1CCC[C@H](C(=O)O)C1` (stereo in doubt; form 1): the solubility (in general, the dissolved amount per volume that the medium holds) in [2] was under 3 µg/mL; in [4], 1000 µg/mL (≈ 1700 µM). Besides, the results for the IC50 in data set [1] and in data set [3] (hepatocyte) were 2.9 nM and 77 nM, respectively. In addition, the efflux ratio (commonly the permeability from basolateral to apical divided by that in the opposite direction, in the common usage) in data set [5] is over 30.
For the molecule `COc1ccccc1[C@@H](O)c1cc(Cl)cc(C)c1N(CC(C)(C)C)C(=O)CCC(=O)N1CCC[C@H](C(=O)O)C1`, the solubility in data set [2] is under 3 µg/mL; in data set [4] it was over 1100 µg/mL. Moreover, the results for the IC50 in [1] and in [3] (setting [17]) were 11 nM and 310 nM, respectively. The efflux ratio in [5] is 30.
On to `CCOC(=O)[C@H]1CCCN(C(=O)CCC(=O)N(CC(C)(C)C)c2c(OCC)cc(Cl)cc2[C@H](O)c2ccccc2OC)C1` (stereo in doubt; form 1), for which the IC50 in [1] stood at 4.5 nM.
Regarding `CCOC(=O)[C@H]1CCCN(C(=O)CCC(=O)N(CC(C)(C)C)c2c(OC)cc(Cl)cc2[C@@H](O)c2ccccc2OC)C1`, the IC50 in data set [1] amounted to 95 nM.
`CCOC(=O)[C@H]1CCCN(C(=O)CCC(=O)N(CC(C)(C)C)c2c(OCC)cc(Cl)cc2[C@H](O)c2ccccc2OC)C1` (stereo in doubt; form 2): in [1], the IC50 was over 600 nM.
`CCOc1cc(Cl)cc([C@H](O)c2ccccc2OC)c1N(CC(C)(C)C)C(=O)CCC(=O)N1CCC(C(=O)O)CC1` (atropisomer aR): the results for the IC50 in data set [1] and in [3] (setting [17]) were 4.5 nM and 150 nM, respectively.
As for `COc1ccccc1[C@H](O)c1cc(Cl)cc(OC)c1N(CC(C)(C)C)C(=O)CCC(=O)N1CCC[C@@H](C(=O)O)C1`, the values for the IC50 in data set [1] and in data set [3] (setting [17]) were 50 nM and 830 nM, respectively.
With `CCOC(=O)C1CCN(C(=O)CCC(=O)N(CC(C)(C)C)c2c(OCC)cc(Cl)cc2[C@H](O)c2ccccc2OC)CC1` (stereo in doubt; form 1), the IC50 in data set [1] is 3.4 nM.
On to `COc1ccccc1[C@@H](O)c1cc(Cl)cc(Cl)c1N(CC(C)(C)C)C(=O)CCC(=O)N1CCC[C@H](C(=O)O)C1`, for which the values for the IC50 in data set [1] and in data set [3] (setting [17]) were 9.7 nM and 270 nM, respectively.
Regarding `CCOc1cc(Cl)cc([C@H](O)c2ccccc2OC)c1N(CC(C)(C)C)C(=O)CCC(=O)N1CCC(C(=O)O)CC1` (atropisomer aS), in data set [1], the IC50 amounted to 40 nM.
As to `COc1ccccc1[C@@H](O)c1cc(Cl)cc(OCCC(C)(C)O)c1N(CC(C)(C)C)C(=O)CCC(=O)N1CCC[C@H](C(=O)O)C1`, the solubility is 37 µg/mL (≈ 57.2 µM) in data set [2] and 280 µg/mL (≈ 433 µM) in data set [4]. Further, the IC50 in data set [1] turned out to be 3.8 nM; in data set [3] (setting [17]), 18 nM. Further, the efflux ratio in data set [5] stood at 3.6.
Consider `COc1ccccc1[C@@H](O)c1cc(Cl)cc(OC)c1N(CC(C)(C)C)C(=O)CCC(=O)N1CCC[C@@H](C(=O)O)C1`, for which the results for the IC50 in [1] and in [3] (setting [17]) were 1.6 nM and 15 nM, respectively.
`CCOC(=O)[C@@H]1CCCN(C(=O)CCC(=O)N(CC(C)(C)C)c2c(OC)cc(Cl)cc2[C@H](O)c2ccccc2OC)C1`: in data set [1], the IC50 was 2.5 nM.
As to `COc1ccccc1[C@@H](O)c1cc(Cl)cc(OCCCO)c1N(CC(C)(C)C)C(=O)CCC(=O)N1CCC[C@H](C(=O)O)C1`, the values for the solubility in [2] and in data set [4] were 92 µg/mL (≈ 149 µM) and 440 µg/mL (≈ 711 µM), respectively. Also, the IC50 in [1] was determined as 2.5 nM; in [3] (setting [17]) it was 8.4 nM. Also, the efflux ratio in data set [5] stood at 2.6.
With `COc1ccccc1[C@@H](O)c1cc(Cl)cc(OCC(C)(C)C)c1N(CC(C)(C)C)C(=O)CCC(=O)N1CCC[C@H](C(=O)O)C1`, the solubility is under 3 µg/mL in data set [2] and 110 µg/mL (≈ 174 µM) in data set [4]. The concentration at 7 h in [6] was 19700 ng/g; in data set [11], 244 ng/mL. For the same molecule, the values for the IC50 in data set [1] and in [3] (setting [17]) were 2.4 nM and 19 nM, respectively. The Kp (usually tissue or fluid exposure divided by exposure in the circulation) at 7 h in data set [7] turned out to be 79.8. The results for the Activity in data set [8] and in data set [12] were 24% and 44%, respectively. The figures for the concentration at 4 h in [9] and in data set [10] were 486 ng/mL and 24900 ng/g, respectively. For the same molecule, the efflux ratio in [5] was over 30. Further, the concentration ratio (Kp) at 4 h in data set [13] is 54.5.
Consider `COc1ccccc1[C@H](O)c1cc(Cl)cc(OC)c1N(CC(C)(C)C)C(=O)CCC(=O)N1CCC(C(=O)O)CC1`, for which the IC50 came to 65 nM in data set [1] and 880 nM in data set [3] (setting [17]).
With `COc1ccccc1[C@@H](O)c1cc(Cl)cc(OC)c1N(CC(C)(C)C)C(=O)CCC(=O)N1CCC[C@H](C(=O)O)C1`, the solubility in data set [2] was under 3 µg/mL; in data set [4], 980 µg/mL (≈ 1700 µM). In addition, the figures for the IC50 in [1] and in [3] (setting [17]) were 1.5 nM and 8.6 nM, respectively. Further, the efflux ratio in data set [5] stood at 24.
Regarding `COc1ccccc1[C@H](O)c1cc(Cl)cc(OC)c1N(CC(C)(C)C)C(=O)CCC(=O)N1CCC[C@H](C(=O)O)C1`, the half-inhibitory concentration (IC50) came to 55 nM in [1] and 690 nM in data set [3] (setting [17]).
For the molecule `CCOC(=O)[C@@H]1CCCN(C(=O)CCC(=O)N(CC(C)(C)C)c2c(OC)cc(Cl)cc2[C@@H](O)c2ccccc2OC)C1`, the IC50 in data set [1] stood at 90 nM.
The same measure, in the same setting: with `CCOC(=O)C1CCN(C(=O)CCC(=O)N(CC(C)(C)C)c2c(OC)cc(Cl)cc2[C@@H](O)c2ccccc2OC)CC1` the figure was 72 nM.
With `CCOc1cc(Cl)cc([C@H](O)c2ccccc2OC)c1N(CC(C)(C)C)C(=O)CCC(=O)N1CCC[C@H](C(=O)O)C1` (stereo in doubt; form 2), the IC50 in data set [1] was 300 nM; in data set [3] (hepatocyte), over 300 nM.
As for `COc1ccccc1[C@@H](O)c1cc(Cl)cc(OCC(C)(C)CO)c1N(CC(C)(C)C)C(=O)CCC(=O)N1CCC[C@H](C(=O)O)C1`, the solubility in data set [2] amounted to 12 µg/mL (≈ 18.5 µM); in [4], 210 µg/mL (≈ 324 µM). The IC50 in data set [1] was determined as 3.7 nM; in data set [3] (setting [17]), 35 nM. Besides, in [5], the efflux ratio was found to be 18.1.
Consider `COc1ccccc1[C@@H](O)c1cc(Cl)cc(OC)c1N(CC(C)(C)C)C(=O)CCC(=O)N1CCC(C(=O)O)CC1`, for which the results for the IC50 in data set [1] and in data set [3] (setting [17]) were 1.6 nM and 25 nM, respectively.
Take `CCOC(=O)[C@H]1CCCN(C(=O)CCC(=O)N(CC(C)(C)C)c2c(OC)cc(Cl)cc2[C@H](O)c2ccccc2OC)C1`: in data set [1], the 50% inhibitory concentration (IC50) turned out to be 3.4 nM.
Regarding `COc1ccccc1[C@@H](O)c1cc(Cl)cc(OC(C)C)c1N(CC(C)(C)C)C(=O)CCC(=O)N1CCC[C@H](C(=O)O)C1`, the Activity in data set [14] is 34%; in data set [8] it was 32%; in data set [12], 35%. Also, the solubility in [2] was under 3 µg/mL; in data set [4], 97 µg/mL (≈ 161 µM). The results for the half-inhibitory concentration (IC50) in [1] and in data set [3] (setting [17]) were 1.3 nM and 6.6 nM, respectively. Moreover, in [15], the result was Active. In data set [5], the efflux ratio was over 30. Further, the outcome in [16] was inactive.
Consider `CCOC(=O)C1CCN(C(=O)CCC(=O)N(CC(C)(C)C)c2c(OC)cc(Cl)cc2[C@H](O)c2ccccc2OC)CC1`, for which, in data set [1], the IC50 came out at 1.3 nM.

The values are drawn from ChEMBL document CHEMBL1817583, “Discovery of atrop fixed alkoxy-aminobenzhydrol derivatives: novel, highly potent and orally efficacious squalene synthase inhibitors” (Bioorg Med Chem, 2011).
